Like-named read-outs stand apart in the source and are kept apart here.
Legend:
phospholipase D = format: cell-based, Phytophthora infestans
Phytophthora infestans = format: cell-based
fungi = format: cell-based
[1] = tested on: Arthrobacter crystallopoietes; conditions: cited from earlier work
Pythium ultimum = format: cell-based; conditions: 50 μM brabantamide A
Phytophthora capsici = format: cell-based; conditions: 50 μM brabantamide A
Staphylococcus aureus = conditions: ref Reder-Christ et al., 2012; Schmidt et al., 2014; cited from earlier work
Text: Recently, we discovered Pseudomonas sp. SH-C52, a strain representative of a larger population of Pseudomonads that contributes to the natural suppressiveness of a soil against the fungal plant pathogen Rhizoctonia solani (Mendes et al., [2011]). The gene cluster responsible for the activity of strain SH-C52 against R. solani is encoded by an NRPS, predicted to synthesize a 9-amino-acid chlorinated LP, designated thanamycin (Mendes et al., [2011]). The production and partial structure of thanamycin was resolved by live colony mass spectrometry (Watrous et al., [2012]). Next to thanamycin, stra ...

B. megaterium [2] = conditions: cited from earlier work
Rhodotorula pilimanae = conditions: cited from earlier work
B. megaterium [3] = conditions: cited from earlier work; remark: listed apart in the source
Pseudomonas syringae = format: cell-based; conditions: inferred from wild type vs thanamycin mutants; data not shown
Method: (§1) For in vitro growth inhibition of fungi and oomycetes, SH-C52 and its derivative strains were, using an overnight culture in KB, spot-inoculated (3 μl) at the periphery of 1/5th strength PDA (pH 7.0) plates. After incubation for 2 days at 25°C, an agar plug (4-mm-diameter) from a freshly grown plate with the target organism was transferred to the center of the 1/5th PDA plate. Inhibition of radial growth of the fungus or the oomycete was monitored from 2 days after incubation up to 2 weeks after incubation, depending on the growth speed of the target organism. For in vitro bacteria and yeast inhibition assays, bacteria and yeast cells were included, after autoclaving and cooling to 45°C, into the 1/5th PDA medium at a concentration of ~10^5 cfu/ml. After solidifying and sufficient drying of the plates, SH-C52 and its derivative strains were, using an overnight culture in KB, spot-inoculated (3 μl) at the periphery of the bacteria or yeast containing plates.

[4] = tested on: Pectobacterium atrosepticum; format: cell-based; conditions: inferred from wild type vs thanamycin mutants; data not shown
Method: as §1

Rhizoctonia solani = conditions: cited from earlier work

Substance: brabantamide
- variation in the phospholipid levels (phospholipase D): no significant variation

Substance: brabantamide A
- inhibition of phospholipase A2 (phospholipase A2): no indication was found
- concentration above which mycelial growth is inhibited (less dense mycelial mat) (Phytophthora infestans): above 5 μM
- activity against P. infestans (Phytophthora infestans; 1% DMSO, 18°C): has activity
- antifungal activity (fungi): No antifungal activity
- activity against Arthrobacter crystallopoietes [1]: displays activity
- activity against Pythium ultimum (Pythium ultimum): has activity
- activity against Phytophthora capsici (Phytophthora capsici): has activity
- activity against Staphylococcus aureus (Staphylococcus aureus): displays activity
- concentration at which the increase in PtdBut levels already occurred (phospholipase D): ≤ 1 µM
- other phospholipid levels (phospholipase D): not affected
- phosphatidylbutanol (PtdBut) levels (indicates stimulation of phospholipase D) (phospholipase D; n = 2): increase

Substance: cormycin
- activity against B. megaterium (B. megaterium [2]): active
- activity against the yeast Rhodotorula pilimanae (Rhodotorula pilimanae): active

Substance: corpeptin
- activity against B. megaterium (B. megaterium [3]): activity was observed

Substance: syringopeptin
- activity against B. megaterium (B. megaterium [3]): activity was observed

Substance: thanamycin
- activity against Pseudomonas syringae (Pseudomonas syringae): little activity
- activity against Pectobacterium atrosepticum [4]: little activity
- antifungal activity against Rhizoctonia solani (Rhizoctonia solani): antifungal activity

Source: PMC4493835 (Frontiers in Microbiology, 2015)
